Three compounds from patent publication US6713506B2, “Tea polyphenol esters and analogs thereof for cancer prevention and treatment” (University of South Florida, priority 2000, dated 2004) can be followed below.

The target in assay [1] is T1, proteasomal chymotrypsin-like activity in Jurkat T cell extract (Homo sapiens, UniProt P28074).
T1 construct: endogenous in cells; host or cells: Jurkat T cells (whole cell extract or intact cells)
Kind of assay: Proteasome chymotrypsin-like activity in Jurkat T cell free extract. It counts as biochemical. As for the experimental part:
FIG. 9. Inhibition of the proteasome activity by tannic acid using a cell free extract. A). The whole cell extract (6.0 μg) from Jurkat T cells is incubated for 90 min at 37° C. with 20 μM of a fluorogenic peptide substrate, Suc-Leu-Leu-Val-Tyr-AMC for the chymotrypsin-like activity, Z-Leu-Leu-Glu-AMC for peptidyl-glutamyl peptide-hydrolyzing (PGPH) activity, and Z-Gly-Gly-Arg-AMC for the trypsin-like activity, in 100 μl of the assay buffer with (filled bars) or without (empty bars) 1 μg/ml of tannic acid. The hydrolyzed AMCs are quantified as described in FIG. 2. B). […] Experiment is performed as described in FIG. 9A.
Inhibition of the proteasome activity with cell free extracts by tea polyphenols—The whole cell extract (3.5 μg) from Jurkat T cells is incubated for 90 min at 37° C. with 20 μM of a fluorogenic peptide substrate, Suc-Leu-Leu-Val-Tyr-AMC (for the chymotrypsin-like activity), Z-Leu-Leu-Glu-AMC [peptidyl-glutamyl peptide-hydrolyzing (PGPH) activity; Calbiochem], and Z-Gly-Gly-Arg-AMC (for the trypsin-like activity; Bachem), in 100 μl of the assay buffer with or without 10 μM EGCG or EGC. The hydrolyzed AMCs are quantified as described above.

For assay [2], the system named is p27, IκB-α, ubiquitinated proteins, Bax in Jurkat T cells. Kind of assay: Western blot of proteasome substrates in Jurkat T cells. It counts as cell-based, human. The note with it: for levels of p27: intact Jurkat T cells, 1 or 10 μM, 12 h. As for the experimental part:
FIG. 5. Western blot analysis. A, Jurkat T cells are treated with 1 or 10 μM of EGCG or EGC for 12 h, or B, C, 25 μM of EGCG for various times, followed by Western blot assay using specific antibodies to p27, IκB-α, ubiquitin or actin, as indicated. MWs of IκB-α and actin are 40 and 43 kDa, respectively. The band of 56 kDa, indicated by an arrow in (B), is an ubiquitinated or phosphorylated form of IκB-α. The bands indicated in (C) are ubiquitin-containing proteins. D, LNCaP cells are treated with 1 or 10 μM of EGCG for 12 h. Western bot is performed as described above. E, F, Jurkat T cells are pretreated with 10 μg/ml cycloheximide for 2 hr, followed by co-incubation with 1 or 10 μM of EGCG for 8 or 12 hr as indicated. The p70 is a putative ubiquitinated p27-containing complex (An et al., 1998, Cell Death Differ 5: 1062-75).
FIG. 11. Western blot assay. Western blot assay is performed using specific antibodies to p27^Kip, Bax, poly(ADP-ribose) polymerase (PARP), or actin. Jurkat T cells are treated with 50 μg/ml of tannic acid for 4, 12 or 24 h. Cells are harvested and lysated using the whole lysis buffer (50 mM Tris-HCl, pH 8.0, 5 mM EDTA, 150 mM NaCl, 0.5% NP-40, 0.5 mM PMSF, and 0.5 mM DTT). Cell lysates (70 μg) are separated on a sodium dodecyl sulfate-polyacrylamide gel electrophoresis (SDS-PAGE), followed by Western blot analysis.
Western blot analysis—Western blot assay is performed as described previously (An et al., (1998) Cell Death Differ 5(12), 1062-75) using specific antibodies to p27^Kip (monoclonal; Pharmingen), IκB-α (polyclonal; Santa Cruz), ubiquitin (polyclonal; Sigma) or actin (polyclonal; Santa Cruz). In brief, Jurkat T or LNCaP cells are treated with EGCG or EGC in dose-response or time-dependent manner. Cells are harvested and lysated using the whole lysis buffer. Cell lysates (70 μg) are separated by a sodium dodecyl sulfate-polyacrylamide gel electrophoresis (SDS-PAGE) and then, electrophoretically transferred to a nitrocellulose membrane. Immunocomplexes are detected using the ECL detection reagents kit (Amersham, Piscataway, N.J.).
For orientation: A western blot detects proteins with antibodies after separation by electrophoresis.

The target of assay [3] is chymotrypsin-like activity of purified 20S proteasome (UniProt Q9P992). It counts as biochemical. As for the experimental part:
FIG. 8. […] A). […] Initially, 0.5 μg of purified 20S proteasome is incubated with 20 μM of a fluorogenic peptide substrate, Suc-Leu-Leu-Val-Tyr-AMC, for 30 min at 37° C. in 100 μl of assay buffer (20 mM Tris-HCl, pH 8.0) with various concentrations of tannic acid. After incubation, the reaction mixture is diluted to 200 μl with the assay buffer, followed by measurement of the hydrolyzed 7-amido-4-methyl-coumarin (AMC) groups using a fluorometer with an excitation filter of 380 nm and an emission filter of 460 nm. B). […] Tannic acid (0.3 μg/ml) and Glucose (180 μg/ml) are used in the proteasome activity assay as described above. C). […] Purified calpain I (3 μg) protein is incubated with 40 μM of a fluorogenic peptide substrate, Suc-Leu-Tyr-AMC, for 30 min at 37° C. in 100 μl of assay buffer (50 mM Tris-HCl, pH 7.5, containing 50 mM NaCl, 1 mM EDTA, 1 mM EGTA, 5 mM β-Mercaptoethanol, 5 mM CaCl2, and 0.1% CHAPS) in the absence (control) or presence of 5 μg/ml of tannic acid or 0.18 μg/ml of calpeptin (calpain inhibitor).
Inhibition of the proteasome activity in vitro by tea polyphenols—To measure the 20S proteasome chymotrypsin-like activity, 0.5 μg of a purified 20S proteasome (Calbiochem) is incubated with 20 μM of a fluorogenic peptide substrate, Suc-Leu-Leu-Val-Tyr-AMC (Calbiochem), for 30 min at 37° C. in 100 μl of assay buffer (20 mM Tris-HCl, pH 8.0), with or without tea polyphenols (purity >95%; Sigma) or tea extract. After incubation, the reaction mixture is diluted to 200 μl with the assay buffer, followed by measurement of the hydrolyzed 7-amido-4-methyl-coumarin (AMC) groups using a VersaFluor™ Fluorometer with an excitation filter of 380 nm and an emission filter of 460 nm (Bio-Rad).

[4] abbreviates: Jurkat T cells, 25 μM EGCG, various times.
Where [5] appears, read: cycloheximide-pretreated Jurkat T cells, 10 μM.

Broadly, the IC50 is the concentration at which inhibition is half-maximal.

“Also recorded” adds a separate entry of the source.

Chain of chymotrypsin-like activity of purified 20S proteasome (Q9P992 whole entry): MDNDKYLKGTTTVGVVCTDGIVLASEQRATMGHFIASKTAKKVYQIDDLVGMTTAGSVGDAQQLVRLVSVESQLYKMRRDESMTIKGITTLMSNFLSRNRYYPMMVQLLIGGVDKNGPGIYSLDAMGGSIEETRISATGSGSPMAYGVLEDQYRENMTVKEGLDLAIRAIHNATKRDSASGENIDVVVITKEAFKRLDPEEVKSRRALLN

For `O=C(OC[C@H]1O[C@@H](OC(=O)c2cc(O)c(O)c(OC(=O)c3cc(O)c(O)c(O)c3)c2)[C@H](OC(=O)c2cc(O)c(O)c(OC(=O)c3cc(O)c(O)c(O)c3)c2)[C@@H](OC(=O)c2cc(O)c(O)c(OC(=O)c3cc(O)c(O)c(O)c3)c2)[C@@H]1OC(=O)c1cc(O)c(O)c(OC(=O)c2cc(O)c(O)c(O)c2)c1)c1cc(O)c(O)c(OC(=O)c2cc(O)c(O)c(O)c2)c1` [tannic acid], in assay [1], the “inhibition of proteasomal chymotrypsin-like activity in Jurkat T cell extract (in words)” value (“inhibition … in Jurkat T cell extract (in words)” for short) is recorded as “Dose-dependent inhibition; also recorded: inhibited by tannic acid in a dose-dependent manner”. In assay [2] (Jurkat T cells, tannic acid 50 μg/ml, 4, 12 or 24 h), the “p27Kip and Bax levels” value is “induction”. In assay [3], the “inhibition of purified 20S proteasome chymotrypsin-like activity (in words)” value is given as “concentration-dependent; also recorded: inhibited”. Further, the “inhibition of chymotrypsin-like activity of the proteasome (in words)” value in assay [3] (tannic acid 0.3 μg/ml, glucose 180 μg/ml) is listed as “inhibited”.

As for `Oc1cc(O)c2c(c1)O[C@H](c1cc(O)c(O)c(O)c1)[C@H](O)C2` [EGC, (−)-epigallocatechin], the “inhibition … in Jurkat T cell extract (in words)” value in assay [1] is listed as “little effect”. Further, the “levels of p27” value in assay [2] was “does not”. Moreover, the “fold less potent than EGCG” value in assay [3] (ratio of IC50 to EGCG) was 14,000 fold.

`O=C(O[C@@H]1Cc2c(O)cc(O)cc2O[C@@H]1c1cc(O)c(O)c(O)c1)c1cc(O)c(O)c(O)c1` [EGCG, (−)-epigallocatechin-3-gallate]: in assay [1], the “inhibition … in Jurkat T cell extract (in words)” value was “most potent proteasome inhibitor among all the tested polyphenols”. Besides, the “inhibition of proteasomal chymotrypsin-like activity” value in assay [1] (10 μM, Jurkat T cell extract) is on record as approximately 70%. For the same compound, in assay [2] (setting [4]), the “levels of IκB-α” value is recorded as “increases” and the “levels of ubiquitinated proteins” value is on record as “increases”. In assay [2] (setting [5]), the “levels of IκB protein” value is given as “increases” and the “levels of p27 protein” value is recorded as “dramatically increased”. Moreover, the “level of p70 (putative ubiquitinated p27-containing protein)” value in assay [2] (cycloheximide-pretreated Jurkat T cells, co-incubation) was “increase”. In assay [2] (cycloheximide-pretreated Jurkat T cells, same concentration (10 μM)), the “induction of IκB expression compared with LLnV” value was “even greater than that of the proteasome inhibitor LLnV”. Moreover, in assay [2], the “levels of p27” value is “greatly increases”. Besides, the IC50 in assay [3] (read-out: IC50 towards the chymotrypsin-like activity of purified 20S proteasome) turned out to be 86 nM.
